Test system: lactating cows
Experiment: Example 1: feeding lactating cows control ration plus about 100 g sorbitol per day, 28 day test period
Format: in vivo, Holstein cows
Description: In this example, twenty Holstein cows averaging about thirty days in milk each, and thus in early lactation, were arranged in a randomized complete block design. Ten of the twenty cows were orally fed a control ration, and the other ten cows were orally fed a test ration that consisted of the control ration plus about 100 grams of sorbitol per day per cow. The cows were blocked by parity milk production, based upon the level of milk production by individual cows, after being in milk for fifteen to twenty days. After being blocked by parity milk production, the cows were randomly allotted to the control ration feeding or to the test ration feeding. The components of the control ration used in this example are shown in Table 1: The control ration was placed in the feeding troughs of the cattle once daily in the morning. When the test ration was to be provided to the test cattle, sorbitol was top dressed and lightly mixed into the control ration in the feeding trough of each cow being supplied with the test ration dosage of about 100 grams of sorbitol per cow per day, about one hour after the control ration was placed in the feeding trough. Then, the control ration and the test ration were lightly mixed in front of the cows six times per day to encourage additional feed ingestion by the cattle. Leftover rations from the previous day's feeding were collected and weighed from each feeding trough prior to feeding the test cattle the next day. The cows received a sufficient amount of the control ration to ensure that at least about ten weight percent, based upon the amount of control ration provided at the beginning of each day, remained per day for each test cow. The amount of sorbitol that was top dressed in the control ration to form the test ration was adjusted upward to account for the excess of control ration provided to ensure that the cows ingested the test ration dosage of about 100 grams of sorbitol per cow per day. Feed refusals were measured daily, and water was supplied ad libitum. […] Each cow was milked three times daily and the weight of produced milk was recorded at each milking. The milk was sampled once per day (⅓ of the sample volume from each milking) and was analyzed for protein, fat, lactose, and total solids, in accordance with the property determination and characterization techniques presented above. The milk production and milk component data was analyzed using the general linear model (GLM) statistical procedure of SAS® statistical analysis software for a randomized, complete block design that included both the particular feed regimen and the week of the test period in the model statement. […] Additionally, all data was analyzed to determine the mean of the data for each variable under consideration over the entire experimental period. […]

OC[C@@H](O)[C@@H](O)[C@H](O)[C@@H](O)CO [sorbitol]
Dry Matter Intake (about 100 g sorbitol/day/cow mixed with control ration, mean over 28 days, control 47.2, P 0.54): 45.6 pounds/day/cow
Milk Production (about 100 g sorbitol/day/cow mixed with control ration, mean over 28 days, control 88.9, P 0.02): 93.5 pounds/day/cow
difference in dry matter intake between control ration and test ration (FIG. 1) (about 100 g sorbitol/day/cow, P 0.54): statistically insignificant
daily milk production at each weekly data point versus control cows (FIG. 2) (about 100 g sorbitol/day/cow, weekly means over four weeks): significant increase
